Assay results taken from patent US20110033393A1, “Hydrazone Compounds and Their Use” (priority 2009, published 2011).

molecular target: T1, human TRPM5 ion channel (Homo sapiens, UniProt Q9NZQ8); assay: FLIPR-based assay for membrane potential and calcium mobilization (TRPM5 inhibiting activity); type: cell-based; conditions: live cells, 30° C., read-out: hTrpM5 IC50
T1 sequence (Q9NZQ8 1-1165): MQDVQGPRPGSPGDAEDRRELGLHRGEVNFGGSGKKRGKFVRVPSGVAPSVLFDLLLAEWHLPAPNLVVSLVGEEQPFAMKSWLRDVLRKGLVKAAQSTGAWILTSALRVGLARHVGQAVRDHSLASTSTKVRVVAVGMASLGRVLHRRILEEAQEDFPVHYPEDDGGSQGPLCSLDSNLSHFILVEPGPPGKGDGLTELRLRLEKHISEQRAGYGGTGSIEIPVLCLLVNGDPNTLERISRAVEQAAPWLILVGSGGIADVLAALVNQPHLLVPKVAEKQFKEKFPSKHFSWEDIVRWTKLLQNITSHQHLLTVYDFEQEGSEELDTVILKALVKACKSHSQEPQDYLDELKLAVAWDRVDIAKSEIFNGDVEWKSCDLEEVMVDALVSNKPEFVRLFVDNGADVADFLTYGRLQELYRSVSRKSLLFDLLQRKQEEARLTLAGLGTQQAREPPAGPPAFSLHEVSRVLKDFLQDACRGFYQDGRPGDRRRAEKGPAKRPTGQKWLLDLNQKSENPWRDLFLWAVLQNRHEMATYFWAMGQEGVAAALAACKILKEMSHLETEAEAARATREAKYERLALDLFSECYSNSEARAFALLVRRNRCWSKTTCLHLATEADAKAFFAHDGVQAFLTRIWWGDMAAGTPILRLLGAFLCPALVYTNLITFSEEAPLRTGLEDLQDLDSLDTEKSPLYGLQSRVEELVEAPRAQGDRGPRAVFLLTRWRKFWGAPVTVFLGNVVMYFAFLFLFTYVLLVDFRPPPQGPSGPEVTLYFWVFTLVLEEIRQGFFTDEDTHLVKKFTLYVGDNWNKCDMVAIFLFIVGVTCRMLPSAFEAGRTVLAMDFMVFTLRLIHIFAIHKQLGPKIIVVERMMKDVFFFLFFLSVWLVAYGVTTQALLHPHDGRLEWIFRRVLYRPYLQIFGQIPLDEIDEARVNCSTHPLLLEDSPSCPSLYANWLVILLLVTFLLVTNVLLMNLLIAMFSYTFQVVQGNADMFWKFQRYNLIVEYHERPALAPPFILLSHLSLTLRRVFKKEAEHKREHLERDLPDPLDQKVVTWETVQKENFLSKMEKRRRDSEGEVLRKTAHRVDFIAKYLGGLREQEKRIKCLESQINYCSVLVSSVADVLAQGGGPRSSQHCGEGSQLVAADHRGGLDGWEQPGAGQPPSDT
Description: The activity of compounds of the present invention on human TRPM5 ion channel was measured using the FLIPR-based (fluorescent imaging plate reader) assay for membrane potential and calcium mobilization described in U.S. Patent Application Publication No. 2008/0249189 A1 in live cells, wherein the assay is performed at 30° C. Determinations of affinity and efficacy were derived from measurements of TRPM5 activity over a range of compound concentrations. The concentration range was achieved by 10 serial dilutions (either 2-fold or 3-fold decrements) from a maximum concentration of no greater that 100 μM. Curver fitting was performed on the resulting data to yield concentration-effect functions, from which the half-maximal inhibitory concentration (IC50) was derived for all the tested compounds. The IC50 values were considered to be accurate reflections of affinity between the compounds and TRPM5.
Representative compounds of the present invention have been tested in the FLIPR assay for TRPM5 inhibiting activity, which is described in detail above.

| Compound | IC50 |
| --- | --- |
| COc1ccc(/C=N/NC(=O)CSc2cccc(Cl)c2)cc1OC [Example 66, 2-(3-chlorophenylthio)-N′-(3,4-dimethoxybenzylidene)acetohydrazide] | 0.04 µM |
| COc1ccc(/C=N/NC(=O)CSc2cccc(CO)c2)cc1OC [Example 67, N′-(3,4-dimethoxybenzylidene)-2-(3-(hydroxymethyl)phenylthio)-acetohydrazide] | > 30 µM |
| Cc1cn(CCC(=O)N/N=C/c2ccc3cccnc3c2)c2ccccc12 [Example 68, 3-(3-methyl-1H-indol-1-yl)-N′-(quinolin-7-ylmethylene)-propanehydrazide] | > 30 µM |
| Cc1ccc2cc(/C=N/NC(=O)CCn3cc(C)c4ccccc43)ccc2n1 [Example 69, 3-(3-methyl-1H-indol-1-yl)-N′-((2-methylquinolin-6-yl)methylene)-propanehydrazide] | > 30 µM |
